Assay results as given in ChEMBL document CHEMBL1201862, “PubChem BioAssay data set” (2004).
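48-hour exposure; five concentrations; linearly interpolated endpoints. GI50 = concentration required for 50% inhibition of growth.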 The source made the active and inactive calls. Cut-off read from the data, not from the text of the source: active = GI50 up to about 1.1 µM and inactive = higher.

Legend:
Assay in all cases: NCI-60 cell line screen, 48 h
A498 = system: A498
DMS-273 = system: DMS-273
EKVX = system: EKVX
MCF7 = system: MCF7
U-251 = system: U-251
UO-31 = system: UO-31
786-0 = system: 786-0
A549 = system: A549
ACHN = system: ACHN
BT-549 = system: BT-549
CAKI-1 = system: CAKI-1
CCRF-CEM = system: CCRF-CEM
COLO 205 = system: COLO 205
DU-145 = system: DU-145
HCC 2998 = system: HCC 2998
HCT-116 = system: HCT-116
HCT-15 = system: HCT-15
HL-60 = system: HL-60
HOP-62 = system: HOP-62
HOP-92 = system: HOP-92
HT-29 = system: HT-29
Hs-578T = system: Hs-578T
IGROV-1 = system: IGROV-1
K562 = system: K562
KM12 = system: KM12
LOX IMVI = system: LOX IMVI
M14 = system: M14
MDA-MB-231 = system: MDA-MB-231
MDA-MB-435 = system: MDA-MB-435
MDA-N = system: MDA-N
MOLT-4 = system: MOLT-4
Malme-3M = system: Malme-3M
NCI-H226 = system: NCI-H226
NCI-H23 = system: NCI-H23
NCI-H460 = system: NCI-H460
NCI-H522 = system: NCI-H522
NCI/ADR-RES = system: NCI/ADR-RES
OVCAR-3 = system: OVCAR-3
OVCAR-4 = system: OVCAR-4
OVCAR-5 = system: OVCAR-5
OVCAR-8 = system: OVCAR-8
PC-3 = system: PC-3
RPMI-8226 = system: RPMI-8226
RXF 393 = system: RXF 393
SF-268 = system: SF-268
SF-295 = system: SF-295
SF-539 = system: SF-539
SK-MEL-28 = system: SK-MEL-28
SK-MEL-2 = system: SK-MEL-2
SK-MEL-5 = system: SK-MEL-5
SK-OV-3 = system: SK-OV-3
SN12C = system: SN12C
SNB-19 = system: SNB-19
SNB-75 = system: SNB-75
SR = system: SR
SW-620 = system: SW-620
T47D = system: T47D
TK-10 = system: TK-10
UACC-257 = system: UACC-257
UACC-62 = system: UACC-62

NC(=O)c1cn(C2OC(CO)C(O)C2O)c2ncnc(N)c12 (stereo not drawn)
GI50 (A498): 72.4 nM (active) | GI50 (DMS-273): 21.3 nM (active) | GI50 (EKVX): 45.3 nM (active) | GI50 (MCF7): 70 nM (active) | GI50 (U-251): 70 nM (active) | GI50 (UO-31): 70 nM (active)

COC(=O)/C=C\C(C#N)(C#N)/N=C/c1ccc(C)s1
GI50 (786-0): 1690 nM (inactive) | GI50 (A498): 20300 nM (inactive) | GI50 (A549): 18400 nM (inactive) | GI50 (ACHN): 1670 nM (inactive) | GI50 (BT-549): 2830 nM (inactive) | GI50 (CAKI-1): 1940 nM (inactive) | GI50 (CCRF-CEM): 84.7 nM (active) | GI50 (COLO 205): 1430 nM (inactive) | GI50 (DU-145): 4480 nM (inactive) | GI50 (EKVX): 5310 nM (inactive) | GI50 (HCC 2998): 17700 nM (inactive) | GI50 (HCT-116): 1320 nM (inactive) | GI50 (HCT-15): 1670 nM | GI50 (HL-60): 2290 nM (inactive) | GI50 (HOP-62): 14900 nM (inactive) | GI50 (HOP-92): 1640 nM (inactive) | GI50 (HT-29): 1510 nM (inactive) | GI50 (Hs-578T): 21800 nM (inactive) | GI50 (IGROV-1): 2000 nM (inactive) | GI50 (K562): 998 nM (active) | GI50 (KM12): 13100 nM (inactive) | GI50 (LOX IMVI): 1670 nM (inactive) | GI50 (M14): 1850 nM (inactive) | GI50 (MCF7): 1490 nM (inactive) | GI50 (MDA-MB-231): 5610 nM (inactive) | GI50 (MDA-MB-435): 2470 nM (inactive) | GI50 (MDA-N): 2490 nM (inactive) | GI50 (MOLT-4): 955 nM (active) | GI50 (Malme-3M): 1600 nM (inactive) | GI50 (NCI-H226): 16700 nM (inactive) | GI50 (NCI-H23): 2230 nM (inactive) | GI50 (NCI-H460): 19300 nM (inactive) | GI50 (NCI-H522): 713 nM (active) | GI50 (NCI/ADR-RES): 5920 nM (inactive) | GI50 (OVCAR-3): 3940 nM (inactive) | GI50 (OVCAR-4): 3780 nM (inactive) | GI50 (OVCAR-5): 6530 nM (inactive) | GI50 (OVCAR-8): 3690 nM (inactive) | GI50 (PC-3): 2630 nM (inactive) | GI50 (RPMI-8226): 1900 nM (inactive) | GI50 (RXF 393): 1460 nM (inactive) | GI50 (SF-268): 6820 nM (inactive) | GI50 (SF-295): 17800 nM (inactive) | GI50 (SF-539): 4630 nM (inactive) | GI50 (SK-MEL-28): 4280 nM (inactive) | GI50 (SK-MEL-2): 5480 nM (inactive) | GI50 (SK-MEL-5): 6920 nM (inactive) | GI50 (SK-OV-3): 15000 nM (inactive) | GI50 (SN12C): 2290 nM (inactive) | GI50 (SNB-19): 18700 nM (inactive) | GI50 (SNB-75): 3120 nM (inactive) | GI50 (SR): 2080 nM (inactive) | GI50 (SW-620): 668 nM (active) | GI50 (T47D): 1580 nM (inactive) | GI50 (TK-10): 1970 nM (inactive) | GI50 (U-251): 12400 nM (inactive) | GI50 (UACC-257): 2730 nM (inactive) | GI50 (UACC-62): 15200 nM (inactive) | GI50 (UO-31): 1670 nM (inactive)

COC1=C2CC(C)CC(OC)[C@@H](OC(=O)CCN)[C@H](C)/C=C(\C)C(OC(N)=O)C(OC)/C=C\C=C(/C)C(=O)NC(=CC1=O)C2=O (stereo partly drawn)
GI50 (786-0): 1050 nM (active) | GI50 (A498): 17300 nM (inactive) | GI50 (A549): 15700 nM (inactive) | GI50 (ACHN): 773 nM (active) | GI50 (BT-549): 4910 nM (inactive) | GI50 (CAKI-1): 4600 nM (inactive) | GI50 (CCRF-CEM): 343 nM (active) | GI50 (COLO 205): 270 nM (active) | GI50 (DU-145): 8570 nM (inactive) | GI50 (EKVX): 12000 nM (inactive) | GI50 (HCC 2998): 1910 nM (inactive) | GI50 (HCT-116): 1820 nM (inactive) | GI50 (HCT-15): 2430 nM | GI50 (HL-60): 256 nM (active) | GI50 (HOP-62): 6380 nM (inactive) | GI50 (HOP-92): 697 nM (active) | GI50 (HT-29): 465 nM (active) | GI50 (Hs-578T): 3730 nM (inactive) | GI50 (IGROV-1): 1290 nM (inactive) | GI50 (K562): 269 nM (active) | GI50 (KM12): 2640 nM (inactive) | GI50 (LOX IMVI): 897 nM (active) | GI50 (M14): 4880 nM (inactive) | GI50 (MCF7): 528 nM (active) | GI50 (MDA-MB-231): 1990 nM (inactive) | GI50 (MDA-MB-435): 802 nM (active) | GI50 (MDA-N): 780 nM (active) | GI50 (MOLT-4): 483 nM (active) | GI50 (Malme-3M): 735 nM (active) | GI50 (NCI-H226): 20400 nM (inactive) | GI50 (NCI-H23): 1550 nM (inactive) | GI50 (NCI-H460): 11100 nM (inactive) | GI50 (NCI-H522): 255 nM (active) | GI50 (NCI/ADR-RES): 16400 nM (inactive) | GI50 (OVCAR-3): 843 nM (active) | GI50 (OVCAR-4): 3030 nM (inactive) | GI50 (OVCAR-5): 8570 nM (inactive) | GI50 (OVCAR-8): 1900 nM (inactive) | GI50 (PC-3): 4060 nM (inactive) | GI50 (RPMI-8226): 871 nM (active) | GI50 (RXF 393): 1560 nM (inactive) | GI50 (SF-268): 9060 nM (inactive) | GI50 (SF-295): 16500 nM (inactive) | GI50 (SF-539): 4400 nM (inactive) | GI50 (SK-MEL-28): 689 nM (active) | GI50 (SK-MEL-2): 9060 nM (inactive) | GI50 (SK-MEL-5): 2920 nM (inactive) | GI50 (SK-OV-3): 12800 nM (inactive) | GI50 (SN12C): 1070 nM (active) | GI50 (SNB-19): 7570 nM (inactive) | GI50 (SNB-75): 20800 nM (inactive) | GI50 (SR): 1260 nM (inactive) | GI50 (SW-620): 357 nM (active) | GI50 (T47D): 486 nM (active) | GI50 (TK-10): 3540 nM (inactive) | GI50 (U-251): 2340 nM (inactive) | GI50 (UACC-257): 1430 nM (inactive) | GI50 (UACC-62): 1470 nM (inactive) | GI50 (UO-31): 4540 nM (inactive)

CC(C)/C(Cl)=N/OC(=O)Nc1ccc(Br)cc1
GI50 (786-0): 1880 nM (inactive) | GI50 (A498): 18400 nM (inactive) | GI50 (A549): 18200 nM (inactive) | GI50 (ACHN): 1740 nM (inactive) | GI50 (BT-549): 4290 nM (inactive) | GI50 (CAKI-1): 1730 nM (inactive) | GI50 (CCRF-CEM): 1360 nM (inactive) | GI50 (COLO 205): 1880 nM (inactive) | GI50 (DU-145): 13700 nM (inactive) | GI50 (EKVX): 1970 nM (inactive) | GI50 (HCC 2998): 15500 nM (inactive) | GI50 (HCT-116): 2900 nM (inactive) | GI50 (HCT-15): 2120 nM | GI50 (HL-60): 2580 nM (inactive) | GI50 (HOP-62): 16900 nM (inactive) | GI50 (HOP-92): 1770 nM (inactive) | GI50 (HT-29): 5830 nM (inactive) | GI50 (Hs-578T): 21700 nM (inactive) | GI50 (IGROV-1): 13000 nM (inactive) | GI50 (K562): 1230 nM (inactive) | GI50 (KM12): 12900 nM (inactive) | GI50 (LOX IMVI): 1320 nM (inactive) | GI50 (M14): 2780 nM (inactive) | GI50 (MCF7): 7660 nM (inactive) | GI50 (MDA-MB-231): 16100 nM (inactive) | GI50 (MDA-MB-435): 11000 nM (inactive) | GI50 (MDA-N): 4830 nM (inactive) | GI50 (MOLT-4): 2390 nM (inactive) | GI50 (Malme-3M): 1690 nM (inactive) | GI50 (NCI-H226): 16700 nM (inactive) | GI50 (NCI-H23): 13300 nM (inactive) | GI50 (NCI-H460): 15000 nM (inactive) | GI50 (NCI-H522): 1520 nM (inactive) | GI50 (NCI/ADR-RES): 13400 nM (inactive) | GI50 (OVCAR-3): 4890 nM (inactive) | GI50 (OVCAR-4): 12700 nM (inactive) | GI50 (OVCAR-5): 14600 nM (inactive) | GI50 (OVCAR-8): 14600 nM (inactive) | GI50 (PC-3): 13600 nM (inactive) | GI50 (RPMI-8226): 1750 nM (inactive) | GI50 (RXF 393): 10200 nM (inactive) | GI50 (SF-268): 17100 nM (inactive) | GI50 (SF-295): 15200 nM (inactive) | GI50 (SF-539): 13200 nM (inactive) | GI50 (SK-MEL-28): 3760 nM (inactive) | GI50 (SK-MEL-2): 16800 nM (inactive) | GI50 (SK-MEL-5): 12900 nM (inactive) | GI50 (SK-OV-3): 16700 nM (inactive) | GI50 (SN12C): 2160 nM (inactive) | GI50 (SNB-19): 20800 nM (inactive) | GI50 (SNB-75): 18600 nM (inactive) | GI50 (SR): 1830 nM (inactive) | GI50 (SW-620): 2200 nM (inactive) | GI50 (T47D): 2670 nM (inactive) | GI50 (TK-10): 13200 nM (inactive) | GI50 (U-251): 18700 nM (inactive) | GI50 (UACC-257): 15200 nM (inactive) | GI50 (UACC-62): 3820 nM (inactive) | GI50 (UO-31): 11600 nM (inactive)
